One may read the IC50 as the concentration needed to halve the response being measured.

The record followed here is patent US8476265B2, “Compounds-801” (AstraZeneca AB, priority 2010, dated 2013).

Experiment [1] concerns the target T1, Adrenergic β2 (Homo sapiens, UniProt P07550).
T1 construct: Adherent H292 cells are removed from tissue culture flasks by treatment with Accutase™ cell detachment solution; endogenous in cells; host or cells: H292 cells
Kind of experiment: Adrenergic β2 mediated cAMP production in H292 cells (AlphaScreen), concentration response. Format: cell-based. The note with it: for EC50: 60 min, 300 μM rolipram, read-out: β2 pEC50 (converted); for β2 Intrinsic Activity: fraction relative to the maximum activity determined for formoterol. The essentials: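 H292 cells seeded overnight, pretreated 10 min with rolipram (300 μM final), then exposed to compounds 60 min at room temperature in HBSS/10 mM HEPES pH 7.4/5 mM glucose, 1% DMSO. Lysate cAMP quantified by AlphaScreen against a standard curve; four-parameter fit gives pEC50 and intrinsic activity relative to formoterol maximum.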
Background: Cyclic AMP is a second messenger, typically raised through Gs and lowered through Gi signalling.

For experiment [2], the target named is T2, human muscarinic acetylcholine M3 receptor (Homo sapiens, UniProt P20309).
T2 construct: expressed in transfected cells; host or cells: CHO-K1 (Chinese Hamster Ovary) cell membranes
The experiment is described as follows: Muscarinic 3 receptor binding assay ([3H]NMS competition, SPA), pIC50. Particulars: [3H]NMS 0.1 nM, CHO-K1 cell membranes expressing human M3 receptor. An outline of the steps: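 Competition of [3H]NMS (0.1 nM, quarter Kd) binding to CHO-K1 membranes expressing human M3, SPA format, in 20 mM HEPES pH 7.4, 5 mM MgCl2, 0.1% BSA, 1% DMSO. Incubated 16 h at room temperature; non-specific binding with 1 μM atropine; pIC50 from specific binding.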

T1 sequence (P07550 whole entry): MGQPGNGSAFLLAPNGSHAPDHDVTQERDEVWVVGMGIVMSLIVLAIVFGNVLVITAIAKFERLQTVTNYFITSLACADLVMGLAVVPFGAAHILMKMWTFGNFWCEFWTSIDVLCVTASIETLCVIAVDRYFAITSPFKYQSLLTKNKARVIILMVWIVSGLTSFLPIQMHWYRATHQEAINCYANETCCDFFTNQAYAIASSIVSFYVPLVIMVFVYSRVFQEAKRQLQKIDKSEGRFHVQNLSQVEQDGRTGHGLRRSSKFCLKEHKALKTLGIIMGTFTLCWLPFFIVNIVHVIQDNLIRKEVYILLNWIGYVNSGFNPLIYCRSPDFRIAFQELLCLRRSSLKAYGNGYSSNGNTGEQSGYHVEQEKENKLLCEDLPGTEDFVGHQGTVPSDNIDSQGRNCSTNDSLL
T2 sequence (P20309 whole entry): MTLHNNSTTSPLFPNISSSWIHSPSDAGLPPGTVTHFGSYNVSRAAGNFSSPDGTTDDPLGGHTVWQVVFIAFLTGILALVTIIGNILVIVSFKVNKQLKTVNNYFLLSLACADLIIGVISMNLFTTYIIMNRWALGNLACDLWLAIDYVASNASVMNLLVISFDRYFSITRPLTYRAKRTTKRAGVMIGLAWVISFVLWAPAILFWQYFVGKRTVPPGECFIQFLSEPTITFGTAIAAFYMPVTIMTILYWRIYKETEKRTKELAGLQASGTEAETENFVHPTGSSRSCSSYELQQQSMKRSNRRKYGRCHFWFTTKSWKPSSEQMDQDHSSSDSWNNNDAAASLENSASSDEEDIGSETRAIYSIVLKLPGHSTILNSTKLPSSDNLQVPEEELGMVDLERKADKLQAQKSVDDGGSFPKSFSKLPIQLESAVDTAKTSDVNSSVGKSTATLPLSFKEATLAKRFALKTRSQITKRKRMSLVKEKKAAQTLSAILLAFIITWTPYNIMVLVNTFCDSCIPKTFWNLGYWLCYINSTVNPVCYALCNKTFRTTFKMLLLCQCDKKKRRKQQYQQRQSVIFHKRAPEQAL

For `CCCCN(CCCNCCc1ccc(O)c2c1OCC(=O)N2)C(=O)CCOCCc1cccc(CN2CCC3(CC2)CN(C(=O)c2csc(CC)n2)CCO3)c1Cl` [Example 80], in experiment [1], the EC50 was 0.0631 µM and the “β2 Intrinsic Activity” value was determined as 0.5. The compound also had an IC50 in experiment [2] of 0.000631 µM.
The matching figures for `O=C1COc2c(CCNCCN(C(=O)CCOCCc3cccc(CN4CCC5(CC4)CN(C(=O)c4cc6ccccc6s4)CCO5)c3)C3CCCCC3)ccc(O)c2N1` [Example 81, 3-(3-((4-(Benzo[b]thiophene-2-carbonyl)-1-oxa-4,9-diazaspiro[5.5]undecan-9-yl)methyl)phenethoxy)-N-cyclohexyl-N-(2-(2-(5-hydroxy-3-oxo-3,4-dihydro-2H-benzo[b][1,4]oxazin-8-yl)ethylamino)ethyl)propanamide]: 0.251 µM, 0.9 and 0.00398 µM.
On the same counts, the results for `O=C1COc2c(CCNCCN(C(=O)CCOCCc3cccc(CN4CCC5(CC4)CN(C(=O)c4csc(-c6ccccc6)n4)CCO5)c3)C3CCCCC3)ccc(O)c2N1` [Example 82, N-Cyclohexyl-N-(2-(2-(5-hydroxy-3-oxo-3,4-dihydro-2H-benzo[b][1,4]oxazin-8-yl)ethylamino)ethyl)-3-(3-((4-(2-phenylthiazole-4-carbonyl)-1-oxa-4,9-diazaspiro[5.5]undecan-9-yl)methyl)phenethoxy)propanamide] are 0.501 µM, 1.0 and 0.00126 µM.
On the same counts, the results for `CCc1ccc(C(=O)N2CCOC3(CCN(Cc4cccc(CCOCCC(=O)N(CCNCCc5ccc(O)c6c5OCC(=O)N6)C5CCCCC5)c4)CC3)C2)s1` [Example 83, N-Cyclohexyl-3-(3-((4-(5-ethylthiophene-2-carbonyl)-1-oxa-4,9-diazaspiro[5.5]undecan-9-yl)methyl)phenethoxy)-N-(2-(2-(5-hydroxy-3-oxo-3,4-dihydro-2H-benzo[b][1,4]oxazin-8-yl)ethylamino)ethyl)propanamide] are 0.251 µM, 1.1 and 0.000316 µM.
As for `O=C1COc2c(CCNCCN(C(=O)CCOCCc3cccc(CN4CCC5(CC4)CN(C(=O)c4ccc6occc6c4)CCO5)c3)C3CCCCC3)ccc(O)c2N1` [Example 84, 3-(3-((4-(Benzofuran-5-carbonyl)-1-oxa-4,9-diazaspiro[5.5]undecan-9-yl)methyl)phenethoxy)-N-cyclohexyl-N-(2-(2-(5-hydroxy-3-oxo-3,4-dihydro-2H-benzo[b][1,4]oxazin-8-yl)ethylamino)ethyl)propanamide], in experiment [1], the EC50 is 0.2 µM and the “β2 Intrinsic Activity” value stood at 1.0. In experiment [2], the 50% inhibitory concentration (IC50) was 0.0002 µM.
The matching figures for `Cc1cc(C(=O)N2CCOC3(CCN(Cc4cccc(CCOCCC(=O)N(CCNCCc5ccc(O)c6c5OCC(=O)N6)C5CCCCC5)c4)CC3)C2)cs1` [Example 85, N-Cyclohexyl-N-(2-(2-(5-hydroxy-3-oxo-3,4-dihydro-2H-benzo[b][1,4]oxazin-8-yl)ethylamino)ethyl)-3-(3-((4-(5-methylthiophene-3-carbonyl)-1-oxa-4,9-diazaspiro[5.5]undecan-9-yl)methyl)phenethoxy)propanamide]: 0.126 µM, 0.9 and 0.000126 µM.
On the same counts, the results for `CC(C)(C)c1nc(C(=O)N2CCOC3(CCN(Cc4cccc(CCOCCC(=O)N(CCNCCc5ccc(O)c6c5OCC(=O)N6)C5CCCCC5)c4)CC3)C2)cs1` [Example 86, 3-(3-((4-(2-tert-Butylthiazole-4-carbonyl)-1-oxa-4,9-diazaspiro[5.5]undecan-9-yl)methyl)phenethoxy)-N-cyclohcxyl-N-(2-(2-(5-hydroxy-3-oxo-3,4-dihydro-2H-benzo[b][1,4]oxazin-8-yl)ethylamino)ethyl)propanamide] are 0.158 µM, 1.0 and 0.00158 µM.
On the same counts, the results for `O=C1COc2c(CCNCCN(C(=O)CCOCCc3cccc(CN4CCC5(CC4)CN(C(=O)c4csc(C6CCC6)n4)CCO5)c3)C3CCCCC3)ccc(O)c2N1` [Example 87, 3-(3-((4-(2-Cyclobutylthiazole-4-carbonyl)-1-oxa-4,9-diazaspiro[5.5]undecan-9-yl)methyl)phenethoxy)-N-cyclohexyl-N-(2-(2-(5-hydroxy-3-oxo-3,4-dihydro-2H-benzo[b][1,4]oxazin-8-yl)ethylamino)ethyl)propanamide] are 0.158 µM, 1.0 and 0.0002 µM.
For `O=C1COc2c(CCNCCN(C(=O)CCOCCc3cccc(CN4CCC5(CC4)CN(C(=O)c4csc(C6CCCC6)n4)CCO5)c3)C3CCCCC3)ccc(O)c2N1` [Example 88, N-Cyclohexyl-3-(3-((4-(2-cyclopentylthiazole-4-carbonyl)-1-oxa-4,9-diazaspiro[5.5]undecan-9-yl)methyl)phenethoxy)-N-(2-(2-(5-hydroxy-3-oxo-3,4-dihydro-2H-benzo[b][1,4]oxazin-8-yl)ethylamino)ethyl)propanamide], in experiment [1], the EC50 was 0.2 µM and the “β2 Intrinsic Activity” value came out at 1.0. In addition, the half-inhibitory concentration (IC50) in experiment [2] is 0.0002 µM.
The matching figures for `Cc1cc(C(=O)N2CCOC3(CCN(Cc4cccc(CCOCCC(=O)N(CCNCCc5ccc(O)c6c5OCC(=O)N6)C5CCCCC5)c4)CC3)C2)sc1C` [Example 89, N-Cyclohexyl-3-(3-((4-(4,5-dimethylthiophene-2-carbonyl)-1-oxa-4,9-diazaspiro[5.5]undecan-9-yl)methyl)phenethoxy)-N-(2-(2-(5-hydroxy-3-oxo-3,4-dihydro-2H-benzo[b][1,4]oxazin-8-yl)ethylamino)ethyl)propanamide]: 0.2 µM, 1.0 and 0.00501 µM.
`CC(C)c1ccc(C(=O)N2CCOC3(CCN(Cc4cccc(CCOCCC(=O)N(CCNCCc5ccc(O)c6c5OCC(=O)N6)C5CCCCC5)c4)CC3)C2)s1` [Example 90, N-Cyclohexyl-N-(2-(2-(5-hydroxy-3-oxo-3,4-dihydro-2H-benzo[b][1,4]oxazin-8-yl)ethylamino)ethyl)-3-(3-((4-(5-isopropylthiophene-2-carbonyl)-1-oxa-4,9-diazaspiro[5.5]undecan-9-yl)methyl)phenethoxy)propanamide]: in experiment [1], the EC50 is 0.251 µM and the “β2 Intrinsic Activity” value was found to be 1.0. Also, the IC50 in experiment [2] is 0.000501 µM.
On the same counts, the results for `CC(C)c1cc(C(=O)N2CCOC3(CCN(Cc4cccc(CCOCCC(=O)N(CCNCCc5ccc(O)c6c5OCC(=O)N6)C5CCCCC5)c4)CC3)C2)cs1` [Example 91, N-Cyclohexyl-N-(2-(2-(5-hydroxy-3-oxo-3,4-dihydro-2H-benzo[b][1,4]oxazin-8-yl)ethylamino)ethyl)-3-(3-((4-(5-isopropylthiophene-3-carbonyl)-1-oxa-4,9-diazaspiro[5.5]undecan-9-yl)methyl)phenethoxy)propanamide] are 0.251 µM, 1.2 and 0.0002 µM.
On the same counts, the results for `O=C1COc2c(CCNCCN(C(=O)CCOCCc3cccc(CN4CCC5(CC4)CN(C(=O)c4ccc6sccc6c4)CCO5)c3)C3CCCCC3)ccc(O)c2N1` [Example 92, 3-(3-((4-(Benzo[b]thiophene-5-carbonyl)-1-oxa-4,9-diazaspiro[5.5]undecan-9-yl)methyl)phenethoxy)-N-cyclohexyl-N-(2-(2-(5-hydroxy-3-oxo-3,4-dihydro-2H-benzo[b][1,4]oxazin-8-yl)ethylamino)ethyl)propanamide] are 0.251 µM, 1.1 and 0.00126 µM.
Turning to `CCCc1cc(C(=O)N2CCOC3(CCN(Cc4cccc(CCOCCC(=O)N(CCNCCc5ccc(O)c6c5OCC(=O)N6)C5CCCCC5)c4)CC3)C2)cs1` [Example 93, N-Cyclohexyl-N-(2-(2-(5-hydroxy-3-oxo-3,4-dihydro-2H-benzo[b][1,4]oxazin-8-yl)ethylamino)ethyl)-3-(3-((4-(5-propylthiophene-3-carbonyl)-1-oxa-4,9-diazaspiro[5.5]undecan-9-yl)methyl)phenethoxy)propanamide], in experiment [1], the EC50 was 0.251 µM and the “β2 Intrinsic Activity” value came out at 1.1. Further, in experiment [2], the IC50 is 0.0002 µM.
The matching figures for `CC(C)Cc1nc(C(=O)N2CCOC3(CCN(Cc4cccc(CCOCCC(=O)N(CCNCCc5ccc(O)c6c5OCC(=O)N6)C5CCCCC5)c4)CC3)C2)cs1` [Example 94, N-Cyclohexyl-N-(2-(2-(5-hydroxy-3-oxo-3,4-dihydro-2H-benzo[b][1,4]oxazin-8-yl)ethylamino)ethyl)-3-(3-((4-(2-isobutylthiazole-4-carbonyl)-1-oxa-4,9-diazaspiro[5.5]undecan-9-yl)methyl)phenethoxy)propanamide]: 0.126 µM, 1.0 and 0.000251 µM.
The matching figures for `CCc1nc(C(=O)N2CCOC3(CCN(Cc4cccc(CCOCCC(=O)N(CCNCCc5ccc(O)c6c5OCC(=O)N6)C5CCCCC5)c4)CC3)C2)cs1` [Example 95, N-Cyclohexyl-3-(3-((4-(2-ethylthiazole-4-carbonyl)-1-oxa-4,9-diazaspiro[5.5]undecan-9-yl)methyl)phenethoxy)-N-(2-(2-(5-hydroxy-3-oxo-3,4-dihydro-2H-benzo[b][1,4]oxazin-8-yl)ethylamino)ethyl)propanamide]: 0.1 µM, 1.0 and 0.000126 µM.
